No end group written: not given here.
Tested on: multiple sclerosis pathology (EAE disease)
Experiment: Mouse experimental autoimmune encephalomyelitis (EAE) model
Type: in vivo, mice
Settings: intravenous injection on day 0, 3, and 6; adoptive transfer of MOG35-55-reactive T cells
Description: Myelin oligodendrocyte glycoprotein (MOG) 30-60 is a fragment of an autoantigen that is associated with multiple sclerosis that is used herein as a non-limiting example of an immunogenic fragment of MOG. […] To induce multiple sclerosis pathology (EAE disease), recipient mice were adoptively transferred on day 0 with MOG35-55-reactive T cells obtained from a separate, previously-vaccinated donor mouse. On day 0, 3, and 6, mice received via intravenous injection of either MOG30-60 peptide, MOG-30-60 peptide chemically conjugated to pGal (LT-MOG-30-60), or saline; an additional control group received administrations of a monoclonal antibody that binds VLA-4 (integrin alpha 4 beta 1). Multiple sclerosis pathology was assessed and scored daily by a pharmacology expert blinded to group identities. […] It shall be appreciated that, according to additional embodiments disclosed herein, other immunogenic fragments of MOG are effective in inducing tolerance to MOG, and thus treatment of MS.

Row | Substance | protection from multiple sclerosis pathology (EAE disease), daily score
1 | pGal-MOG30-60: MOG-30-60 peptide chemically conjugated to pGal (e.g., Polymer B) (KNATGMEVGWYRSPFSRVVHLYRNGKDQDAE; also: chemically conjugated to pGal polymer (e.g. Polymer B), site not given here; UniProt Q61885 58-88, looked up, fragment) | protected from multiple sclerosis pathology (EAE disease)
2 | MOG30-60: Myelin oligodendrocyte glycoprotein (MOG) 30-60 peptide, SEQ ID NO: 30, administered alone (KNATGMEVGWYRSPFSRVVHLYRNGKDQDAE; MOG 30-60; listed as Homo sapiens) | not substantively protected from disease
